From patent publication US11980595B2, “Preventive or therapeutic agent and pharmaceutical composition for inflammatory diseases or bone diseases” (National University Corporation Chiba University, priority 2018, dated 2024)

Legend:
[1] = tested on: social defeat stress mice; test: Femur bone density by X-ray CT in social defeat stress mice; assay type: in vivo; settings: Experimental Example 11, 10 mg/kg i.p. once, D15, compared to saline
[2] = tested on: social defeat stress mice; test: Behavioral rating (tail suspension, forced swimming, sucrose preference tests) in social defeat stress mice; settings: Experimental Example 11, 10 mg/kg i.p. once on D12, tests D12-D14, compared to saline
[3] = tested on: RANKL; test: Plasma RANKL and OPG/RANKL ratio in social defeat stress mice (ELISA); settings: for OPG/RANKL ratio / RANKL concentration in plasma: compared to saline; for restoring abnormally high expression of RANKL to a normal value: summary of Experimental Example 6, 10 mg/kg i.p. once; for therapeutic effect (restoring abnormally high expression of RANKL to a normal value): summary of Experimental Example 11, 10 mg/kg i.p. once
[4] = tested on: DSS-treated mice, the ulcerative colitis animal model; test: Colonic inflammation score in DSS ulcerative colitis model mice; assay type: in vivo; settings: 3% DSS mice, 10 mg/kg i.p. once a day for 14 days, day 15
Experimental: The mice from each group that had been euthanized were resected from cecum to anus, and a length from directly below the cecum to the anus was measured. Subsequently, the lumen of the colon was washed with saline, and after washing, an incision was made in the longitudinal direction, and a colonic inflammation score was determined according to the following evaluation criteria.
The mice from each group that had been euthanized were resected from the cecum to the anus, and the length from directly below the cecum to the anus was measured.

[5] = tested on: DSS-treated mice, the ulcerative colitis animal model; test: Disease condition score in DSS ulcerative colitis model mice; settings: for disease condition score: 3% DSS mice, scored day 7, 10, 12, 14
[6] = tested on: Interleukin (IL)-6; test: Inflammatory cytokine IL-6 in plasma of DSS ulcerative colitis model mice (ELISA); assay type: in vivo; settings: for IL-6 concentration in blood: 3% DSS mice, plasma day 15, compared to DSS+saline
From the text: Furthermore, after the blood collection was completed, the mice in each group were euthanized by exsanguination under isoflurane anesthesia.
(§1) Interleukin (IL)-6 was quantified as the inflammatory cytokine. IL-6 was quantified by ELISA method using a commercially available kit.
Furthermore, after blood collection was completed, the mice in each group were euthanized by exsanguination under isoflurane anesthesia.
as §1

[7] = tested on: ovariectomized mice; test: Femur bone density by X-ray CT in ovariectomized mice (osteoporosis model); assay type: in vivo; settings: Experimental Example 13, 10 mg/kg i.p. Monday and Thursday, 6 weeks after surgery, compared to saline
From the text: The effect of R-ketamine was examined using ovariectomized mice as a model animal for osteoporosis.

[8] = tested on: sRANKL-administered mice; test: Femur bone density by X-ray CT in sRANKL-administered mice (osteoporosis model); settings: Experimental Example 12, sRANKL (1 mg/kg) mice, 10 mg/kg i.p. 30 minutes before sRANKL and 24 and 48 hours after
[9] = tested on: NMDA receptors; settings: S-ketamine compared to R-ketamine; cited from earlier work
[10] = Experimental Example 6, 10 mg/kg i.p. once, four days after
[11] = Experimental Example 6, 10 mg/kg i.p. once, plasma four days after
[12] = Experimental Example 11, 10 mg/kg i.p. once, plasma three days after (D15)
[13] = Experimental Example 2, 10 mg/kg i.p. once a day for 14 days
[14] = summary of Experimental Examples 1 to 4, intraperitoneal 10 mg/kg
[15] = Experimental Example 4, 10 mg/kg i.p. once a day for 14 days

Row | SMILES | cortical bone density [1] | total bone density [1] | antidepressant effect (tail suspension test, forced swimming test, sucrose preference test) [2] | OPG/RANKL ratio [3, 10] | RANKL concentration in plasma [3, 11] | RANKL concentration in plasma [3, 12] | restoring abnormally high expression of RANKL to a normal value [3] | therapeutic effect (restoring abnormally high expression of RANKL to a normal value) [3] | disease condition score [5, 13] | therapeutic effect in ulcerative colitis animal model [5, 14] | IL-6 concentration in blood [6, 15] | other results
1 | CN[C@@]1(c2ccccc2Cl)CCCCC1=O [R-ketamine] | significantly improved | significantly improved | significantly higher antidepressant effect | significantly increased | significantly decreased | significantly decreased | able to restore an abnormally high expression of RANKL to a normal value | able to restore an abnormally high expression of RANKL to a normal value | significant improvement of the disease condition score | exhibited a therapeutic effect | significant decrease of IL-6 concentration in blood | OPG/RANKL ratio ([3]; Experimental Example 11, 10 mg/kg i.p. once, three days after (D15)): significantly increased; colonic inflammation score ([4]; Experimental Example 3, compared to DSS+S-ketamine group): significant improvement of the colonic inflammation score; colonic inflammation score ([4]; Experimental Example 9, compared to DSS+5-ASA (50 mg/kg) group): significant improvement of the colonic inflammation score; disease condition score ([5]; Experimental Example 8, 10 mg/kg i.p. once a day for 14 days, compared to DSS and saline): significant improvement of the disease condition score; therapeutic effect in ulcerative colitis animal model ([5]; summary of Experimental Examples 7 to 10, intraperitoneal 10 mg/kg): significant therapeutic effect; effect of reducing IL-6 in blood, R-ketamine compared to S-ketamine [6, 15]: higher than when administering S-ketamine; IL-6 concentration in blood ([6]; Experimental Example 10, 10 mg/kg i.p. once a day for 14 days): a significant decrease of IL-6 concentration in blood was observed; cancellous bone density [7]: tended to increase along with R-ketamine administration, but it was not statistically significant; cortical bone density [7]: significantly improved; plane bone density [7]: tended to increase along with R-ketamine administration, but it was not statistically significant; total bone density [7]: significantly improved; cancellous bone density [8]: significantly increased; cortical bone density ([8]; compared to saline): significantly improved; total bone density ([8]; compared to saline): significantly improved
2 | N[C@@]1(c2ccccc2Cl)CCC[C@@H](O)C1=O [2R,6R-HNK, 2R,6R-hydroxynorketamine] | no significant change | no significant change | no antidepressant effect | – | – | a significant change to RANKL concentration in plasma was not observed | – | no therapeutic effect was observed | – | – | – | OPG/RANKL ratio ([3]; Experimental Example 11, 10 mg/kg i.p. once, three days after (D15), 10 mg/kg): a significant change to the OPG/RANKL ratio was not observed
3 | Nc1ccc(O)c(C(=O)O)c1 [5-ASA, 5-aminosalicylic acid, reference compound] | – | – | – | – | – | – | – | – | – | – | – | disease condition score ([5]; Experimental Example 8, 50 mg/kg i.p. once a day for 14 days, compared to DSS and saline): improvement tendency of the disease condition score was observed in the “DSS+5-ASA” group, but it was not significant; therapeutic effect in ulcerative colitis animal model ([5]; summary of Experimental Examples 7 to 10, intraperitoneal 50 mg/kg): extremely weak therapeutic effect; IL-6 concentration in blood ([6]; Experimental Example 10, 50 mg/kg i.p. once a day for 14 days): a significant decrease of IL-6 concentration in blood was not observed
4 | CN[C@]1(c2ccccc2Cl)CCCCC1=O [S-ketamine] | – | – | – | a significant change to the OPG/RANKL ratio was not observed | a significant change to RANKL concentration in plasma was not observed | – | such an effect was not observed | – | improvement tendency of the disease condition score was observed in the “DSS+S-ketamine” group, but it was not significant | exhibited a tendency for a therapeutic effect in the ulcerative colitis animal model, but the effect was weaker than that of R-ketamine | significant decrease of IL-6 concentration in blood | affinity for NMDA receptors [9]: stronger affinity for NMDA receptors than R-ketamine
